What was measured:
[1] = test system: RNA expression in white visceral (intra-abdominal) adipose tissue; assay: Real-time RT-PCR of RNA expression in white visceral adipose tissue of treated DKO mice; assay type: in vivo, mouse
Method: Homozygous LDL-receptor-knockout mice (LDLR^(−/−)), heterozygous ob/+, and C57BL6 mice were purchased from Jackson Laboratory, Bar Harbor, Me. LDLR^(−/−) mice were backcrossed into a C57BL6 background to the 10th generation. To obtain DKO mice with combined leptin deficiency (ob/ob) and LDL-receptor deficiency, LDLR^(−/−) and ob/+ mice were crossed. All offspring were genotyped by polymerase chain reaction (PCR) techniques. All mice were housed at 22° C. on a fixed 12/12-hour light/dark cycle. Experimental procedures in animals were performed in accordance with protocols approved by the Institutional Animal Care and Research Advisory Committee. All mice were fed standard chow containing 4% fat (Pavan Service). Food intake was ≈5.7 g/d. Mice (about 50 g) were treated with stevioside (N=14; 10 mg/kg), steviol (N=9; 5 mg/kg) or placebo (N=17) for 12 weeks between 12 and 24 weeks of age. Stevioside (Molecular weight: 804) was dissolved in water (1 mg/ml) and 500 μl of the solution was administered orally. Steviol (Molecular weight: 318) was dissolved in water containing 6% NaHCO3 (1 mg/ml) and 250 μl of the solution was administered orally.
The level of RNA expression in extracts of white visceral (intra-abdominal) adipose tissue and aortic arch was measured by real-time reverse transcription (RT)-PCR. Total RNA was extracted with the Trizol reagent (InVitrogen) and purified on an RNeasy kit column (Qiagen). First-strand cDNA was generated from total RNA by RT using random primers from Takara and Superscript III reverse transcriptase (InVitrogen). Quantitative real-time PCR was performed using SybrGreen master mix according to the supplier protocols (Applied Biosystems).). Oligonucleotides (InVitrogen) used as forward primer (F) and reverse primer (R) were: for mouse PPARalpha: F: 5′-[…]-3′; R: 5′-[…]-3′; for mouse PPARgamma: F: 5′-[…]-3′; R: 5′-GTCAGCGGGTGGGACTTTC-3′; for mouse FABP4: F: 5′-AACTGGGCGTGGAATTCG-3′; R: 5′-[…]-3′; for mouse iNOS: F: 5′-[…]-3′; R: 5′-[…]-3′; for mouse GLUT-4: F: 5′-[…]-3′; R: 5′-[…]-3′; for mouse IRS-1: F: 5′-[…]-3′; R: 5′-CGCCTCGGGAAGAGACAGT-3′; for mouse IRS-2: F: 5′-[…]-3′: R: 5′-[…]-3′; for mouse LXRalpha: F: 5′-[…]-3′; R: 5′-[…]-3′; for mouse SOD1: F: 5′-[…]-3′; R: 5′-[…]-3′; for mouse SOD2: F: 5′-TCGGTGGCGTTGAGATTGT; R: 5′-[…]-3′; for mouse SOD3: F: 5′-[…]-3′; R: 5′-GCTGCCGGAAGAGAACCAA-3′; and for mouse β-actin (housekeeping gene), F: 5′-[…]-3′; R: 5′-[…]-3′. The level of mRNA expression was calculated using the threshold cycle (Ct) value, i.e., the number of PCR cycles at which the fluorescent signal during the PCR reaches a fixed threshold. For each sample, the Ct both for the gene of interest and for the housekeeping gene β-actin were determined to calculate ΔCt,sample (Ct,target gene−Ct,housekeeping gene), thus normalizing the data and correcting for differences in amount and/or quality between the different RNA samples. The expression levels were related to an external calibrator consisting of intra-abdominal adipose tissue from C57BL6 control mice. Subsequently, ΔΔCt (ΔCt,sample−ΔCt,calibrator) was determined, and the relative expression levels were calculated from 2^−ΔΔCt according to the manufacturer's instructions (Applied Biosystems). RNA expression levels are thus indicated as arbitrary units ±SD

3T3-L1 adipocytes = assay: Triglyceride (Oil red O) accumulation during differentiation of 3T3-L1 adipocytes; assay type: cell-based, mouse
Method: 3T3-L1 mouse preadipocytes were purchased from the American Type Culture Collection (ATCC). They are cultivated in DHG medium (Dulbecco's modified Eagle's medium+High Glucose 4.5 g/l, GibcoBRL) supplemented with 10% FCS (foetal calf serum, GibcoBRL) and incubated a 37 C+5% CO2 incubator in a humidified atmosphere. For pre-adipocyte differentiation, 3T3-L1 cells were seeded at 50% confluence 3 days before the beginning of the differentiation programme. Confluent cell monolayers (day 0) are switched for 48 h to media containing the adipogenic cocktail: “DHG-L1” medium (DHG that contains 1.5 g/l NaHCO3) supplemented with 10% FCS, 5 μg/ml insulin, 300 μM dibutyryl-cyclicAMP (dbcAMP) and 1 μM dexamethasone. The cells were then refeeded every other day with DHG-L1 containing 10% FCS and 5 μg/ml insulin. At the end, 80-90% of cells were differentiated. […]
To characterize the state of (de)differentiation obtained in the presence of the molecules of interest, triglycerides present in the cells were stained with Oil red O (a dye of the neutral lipids). The absorbance of cell monolayers at 490 nm was measured in a spectrophotometer.

[2] = test system: everted gastrointestinal sacs of rats and Caco-2 cell layers; conditions: everted gastrointestinal sacs of rats, Caco-2 cell layers; cited from earlier work
bacteria of the colon = conditions: cited from earlier work
[3] = adipose tissue, stevioside 10 mg/kg orally, 12 weeks
[4] = adipose tissue, treatment with stevioside

C=C1C[C@@]23CC[C@H]4C(C)(CCC[C@@]4(C)C(=O)O[C@@H]4O[C@H](CO)C(O)[C@H](O)C4O)[C@@H]2CCC1(OC1O[C@H](CO)C(O)C(O)C1OC1O[C@H](CO)C(O)[C@H](O)C1O)C3 (stereo in doubt) [stevioside, Kaur-16-en-18-oic acid, 13-[(2-O-b-D-glucopyranosyl-b-D-glucopyranosyl)oxy]-, b-D-glucopyranosyl ester, (4a)-]
LPL expression ([1]; adipose tissue of stevioside-treated mice): not associated with a change
expression of FABP-4 [1, 3]: increased expression
expression of GLUT-4 [1, 3]: increased expression
expression of IRS-1 [1, 3]: increased expression
expression of IRS-2 [1, 3]: increased expression
expression of LXRalpha [1, 3]: increased expression
expression of PPARalpha [1, 3]: increased expression
expression of PPARgamma [1, 3]: increased expression
expression of the antioxidant SOD3 [1, 3]: increased expression
expression of CD36 [1, 4]: increased expression
expression of catalase [1, 4]: increased expression
expression of the insulin receptor (INSR) [1, 4]: increased expression
triglyceride accumulation in adipocytes (3T3-L1 adipocytes; 50-micromolar (lowest concentration), added during the 7-days differentiation process): did not significantly reduce
lipid deposition (triglyceride accumulation) in adipocytes (3T3-L1 adipocytes; 200-micromolar (4x higher concentration), added during differentiation, steviol dissolved with DMSO): inhibited
uptake by the intestinal tract [2]: extremely low
degradation by bacteria of the colon (bacteria of the colon): degraded
